According to patent US9914731B2, “Pyrazolo[1,5-a]pyridine derivatives and methods of their use” (Ignyta, Inc., priority 2013, dated 2018):

Biological target: recombinant human baculovirus-expressed cMET (Homo sapiens (Human), UniProt P08581)
Test: c-MET kinase assay (HTRF KinEASE)
Assay type: biochemical
Settings: average of two or more determinations; read-out: c-MET IC50

`CN1CCN(c2ccc(-c3cc(Oc4ccc(NC(=O)C5(C(=O)Nc6ccc(F)cc6)CC5)cc4F)c4ccnn4c3)cn2)CC1` [Example 36, Cyclopropane-1,1-dicarboxylic acid (3-fluoro-4-{6-[6-(4-methyl-piperazin-1-yl)-pyridin-3-yl]-pyrazolo[1,5-a]pyridin-4-yloxy}-phenyl)-amide (4-fluoro-phenyl)-amide] was tested. Which IC50 did it give?
Its IC50 is under 10 nM.

With `CCOCCOc1ccn(-c2ccc(F)cc2)c(=O)c1C(=O)Nc1ccc(Oc2cccn3nccc23)c(F)c1` [Example 14, 4-(2-Ethoxy-ethoxy)-1-(4-fluoro-phenyl)-2-oxo-1,2-dihydro-pyridine-3-carboxylic acid [3-fluoro-4-(pyrazolo[1,5-a]pyridin-4-yloxy)-phenyl]-amide] as the compound, how does the IC50 read?
The IC50 was 10 to 100 nM.

For `O=C(Nc1ccc(Oc2cc(N3CCCCC3)cn3nccc23)c(F)c1)c1cccn(-c2ccc(F)cc2)c1=O` [Example 57, 1-(4-Fluoro-phenyl)-2-oxo-1,2-dihydro-pyridine-3-carboxylic acid[3-fluoro-4-(6-piperidin-1-yl-pyrazolo[1,5-a]pyridin-4-yloxy)-phenyl]-amide], which IC50 is on record?
The IC50 was under 10 nM.

With `CCOc1ccn(-c2ccc(F)cc2)c(=O)c1C(=O)Nc1ccc(Oc2cc(-c3cn(C)cn3)cn3nccc23)cc1` [Example 118, 4-Ethoxy-1-(4-fluoro-phenyl)-2-oxo-1,2-dihydro-pyridine-3-carboxylic acid {4-[6-(1-methyl-1H-imidazol-4-yl)-pyrazolo[1,5-a]pyridin-4-yloxy]-phenyl}-amide] as the compound, how does the IC50 read?
Its IC50 is under 10 nM.

`Cc1ccc(C(=O)Nc2ccc(Oc3cc(Br)cn4nccc34)c(F)c2)c(=O)n1-c1ccc(F)cc1` [Example 157, 1-(4-Fluoro-phenyl)-6-methyl-2-oxo-1,2-dihydro-pyridine-3-carboxylic acid [4-(6-bromo-pyrazolo[1,5-a]pyridin-4-yloxy)-3-fluoro-phenyl]-amide] was tested. Which IC50 did it give?
The IC50 was 10 to 100 nM.

`CCn1cc(C(=O)Nc2ccc(Oc3cc(Nc4ccccn4)cn4nccc34)c(F)c2)c(=O)n(-c2ccc(F)cc2)c1=O` [Example 86, 1-Ethyl-3-(4-fluoro-phenyl)-2,4-dioxo-1,2,3,4-tetrahydro-pyrimidine-5-carboxylic acid{3-fluoro-4-[6-(pyridin-2-ylamino)-pyrazolo[1,5-a]pyridin-4-yloxy]-phenyl}-amide] was tested. Which IC50 did it give?
The IC50 was 10 to 100 nM.

`Cn1cc(-c2cc(Oc3ccc(NC(=O)C4(C(=O)Nc5ccc(F)cc5)CC4)cc3F)c3ccnn3c2)cn1` [Example 32, Cyclopropane-1,1-dicarboxylic acid {3-fluoro-4-[6-(1-methyl-1H-pyrazol-4-yl)-pyrazolo[1,5-a]pyridin-4-yloxy]-phenyl}-amide(4-fluoro-phenyl)-amide] was tested. Which IC50 did it give?
Its IC50 is under 10 nM.

With `O=C(Nc1ccc(Oc2cc(N3CCC4(CC3)OCCO4)cn3nccc23)c(F)c1)c1cccn(-c2ccc(F)cc2)c1=O` [Example 67, 1-4-(Fluoro-phenyl)-2-oxo-1,2-dihydro-pyridine-3-carboxylic acid{4-[6-(1,4-dioxa-8-aza-spiro[4,5]dec-8-yl)-pyrazolo[1,5-a]pyridin-4-yloxy]-3-fluoro-phenyl}-amide] as the compound, how does the IC50 read?
Its IC50 is 10 to 100 nM.

`O=C(Nc1ccc(Oc2cccn3nccc23)cc1)c1cccn(-c2ccc(F)cc2)c1=O` [Example 1, 1-(4-Fluoro-phenyl)-2-oxo-1,2-dihydro-pyridine-3-carboxylic acid [4-(pyrazolo[1,5-a]pyridin-4-yloxy)-phenyl]-amide] was tested. Which IC50 did it give?
Its IC50 is under 10 nM.

How did the IC50 turn out when `CCn1cc(C(=O)Nc2ccc(Oc3cc(C(=O)N(C)C)cn4nccc34)c(F)c2)c(=O)n(-c2ccc(F)cc2)c1=O` [Example 139, 4-(4-{[1-Ethyl-3-(4-fluoro-phenyl)-2,4-dioxo-1,2,3,4-tetrahydro-pyrimidine-5-carbonyl]-amino}-2-fluoro-phenoxy)-pyrazolo[1,5-a]pyridine-6-carboxylic acid dimethylamide] was run?
The IC50 was under 10 nM.

`O=C(Nc1ccc(Oc2cc(N3CCS(=O)(=O)CC3)cn3nccc23)c(F)c1)c1cccn(-c2ccc(F)cc2)c1=O` [Example 72, 1-(4-Fluoro-phenyl)-2-oxo-1,2-dihydro-pyridine-3-carboxylic acid{4-[6-(1,1-dioxo-thiomorpholin-4-yl)-pyrazolo[1,5-a]pyridin-4-yloxy]-3-fluoro-phenyl}-amide] was tested. Which IC50 did it give?
The IC50 was 10 to 100 nM.

With `O=C(Nc1ccc(F)cc1)C1(C(=O)Nc2ccc(Oc3cccn4nccc34)c(F)c2)CC1` [Example 5, Cyclopropane-1,1-dicarboxylic acid (4-fluoro-phenyl)-amide [3-fluoro-4-(pyrazolo[1,5-a]pyridin-4-yloxy)-phenyl]-amide] as the compound, how does the IC50 read?
Its IC50 is under 10 nM.

With `Cc1nn(-c2ccccc2)c(C)c1C(=O)Nc1ccc(Oc2cccn3nccc23)cc1` [Example 20, 3,5-Dimethyl-1-phenyl-1H-pyrazole-4-carboxylic acid [4-(pyrazolo[1,5-a]pyridin-4-yloxy)-phenyl]-amide] as the compound, how does the IC50 read?
The IC50 was 1000 to 10000 nM.

How did the IC50 turn out when `CC(C)n1cc(C(=O)Nc2ccc(Oc3cc(C(=O)N(C)C)cn4nccc34)c(F)c2)c(=O)n(-c2ccc(F)cc2)c1=O` [Example 138, 4-(2-Fluoro-4-{[3-(4-fluoro-phenyl)-1-isopropyl-2,4-dioxo-1,2,3,4-tetrahydro-pyrimidine-5-carbonyl]-amino}-phenoxy)-pyrazolo[1,5-a]pyridine-6-carboxylic acid dimethylamide] was run?
The IC50 was under 10 nM.

How did the IC50 turn out when `Cn1cc(-c2cc(Oc3ccc(NC(=O)c4cccn(-c5ccc(F)cc5)c4=O)cn3)c3ccnn3c2)cn1` [Example 89, 1-(4-Fluoro-phenyl)-2-oxo-1,2-dihydro-pyridine-3-carboxylic acid{6-[6-(1-methyl-1H-pyrazol-4-yl)-pyrazolo[1,5-a]pyridin-4-yloxy]-pyridin-3-yl}-amide] was run?
The IC50 was under 10 nM.

Which IC50 does the source give for `CCNc1ccn(-c2ccc(F)cc2)c(=O)c1C(=O)Nc1ccc(Oc2cccn3nccc23)c(F)c1` [Example 15, 4-Ethylamino-1-(4-fluoro-phenyl)-2-oxo-1,2-dihydro-pyridine-3-carboxylic acid [3-fluoro-4-(pyrazolo[1,5-a]pyridin-4-yloxy)-phenyl]-amide] here?
The IC50 was 10 to 100 nM.

For `O=C(Nc1ccc(Oc2cccn3nccc23)c(F)c1)c1c(I)ccn(-c2ccc(F)cc2)c1=O` [Example 12, 1-(4-Fluoro-phenyl)-4-iodo-2-oxo-1,2-dihydro-pyridine-3-carboxylic acid [3-fluoro-4-(pyrazolo[1,5-a]pyridin-4-yloxy)-phenyl]-amide], which IC50 is on record?
The IC50 was 10 to 100 nM.

For `CC(C)n1cc(C(=O)Nc2ccc(Oc3cc(NS(C)(=O)=O)cn4nccc34)c(F)c2)c(=O)n(-c2ccc(F)cc2)c1=O` [Example 141, 3-(4-Fluoro-phenyl)-1-isopropyl-2,4-dioxo-1,2,3,4-tetrahydro-pyrimidine-5-carboxylic acid[3-fluoro-4-(6-methanesulfonylamino-pyrazolo[1,5-a]pyridin-4-yloxy)-phenyl]-amide], which IC50 is on record?
Its IC50 is 10 to 100 nM.

`CCn1cc(C(=O)Nc2ccc(Oc3cc(NC(=O)N(C)C)cn4nccc34)c(F)c2)c(=O)n(-c2ccc(F)cc2)c1=O` [Example 146, 1-Ethyl-3-(4-fluoro-phenyl)-2,4-dioxo-1,2,3,4-tetrahydro-pyrimidine-5-carboxylic acid {4-[6-(3,3-dimethyl-urea)-pyrazolo[1,5-a]pyridin-4-yloxy]-3-fluoro-phenyl}-amide] was tested. Which IC50 did it give?
The IC50 was under 10 nM.
